Data reported in US10555687B2, “Apparatus and method for physiologic and pharmacodynamic assessment and monitoring” (priority 2015, dated 2020).

Test system: Aβ fiber
Experiment: PRD pharmacological assessment of sciatic nerve pain
Type: in vivo, human
From the text: According to one embodiment, the neuro-stimulator can be integrated with a smartphone, thereby allowing for the detection of mechanism specific nociception via recording and parameterization of the PRD under a multitude of conditions. Parameterization of the PRD curve includes two static measures: a pupillary baseline and peak dilation diameters (dilation amplitude or DA), and at least three dynamic measures: slopes of the ascending and descending portions of the PRD curve representing the dilation velocity (DV) and recovery velocity, as well as the duration of the reflex, and the area under the curve representing pain sensitivity/intensity.
By one embodiment, large-fiber neuropathic pain is transmitted via Aβ nerve fiber type, which is stimulated at 2000 Hz. Neuropathic pain is detected and measured by examining the relationship of the parameters of the PRD to a 2000 Hz stimulus. Small fiber neuropathic pain is transmitted via C-fiber and Aδ fibers, and is often seen with metabolic disorders such as diabetes or chemotherapy induced neuropathic pain. The neuropathic pain index (NPI) integrates the intensity stimulus (mA) relative to the DV, DA, AUC and recovery time. Accordingly, neuropathic pain can be defined with respect to whether the pain is a small fiber based pain or a large fiber based pain. Moreover the NPI provisions for flexibility of monitoring an intervention. […]

Structure (SMILES): NCC1(CC(=O)O)CCCCC1 [Gabapentin]
- pain sensitivity (PRD) in sciatic nerve pain (compression of the Aβ fiber, large fiber neuropathic pain (FIG. 8B)): diminishes the pain sensitivity
- area under the PRD curve compared with opioid intervention (sciatic nerve pain (FIG. 8B)): substantially smaller
